Measured values published in patent US20250049787A1, “TREATMENT FOR ACUTE MYELOID LEUKEMIA OR LYMPHOMA” (UNIVERSITY HEALTH NETWORK, priority 2021, published 2025).
Where a name gives a salt, the structure may show the parent alone.

Columns and labels:
OCI-LY3 = test: Growth inhibition, Alamar Blue; type: cell-based; conditions: Homo sapiens, 72 h; OCI-LY3, NHL, ABC-DLBCL; 3 days
Procedure: (§1) Cell lines were obtained from American Type Culture Collection (ATCC) and maintained according to the supplier's instructions, and from Dr. Mark Minden (Princess Margaret Cancer Centre, Toronto, Canada). Short tandem repeat (STR) profiling was used to verify authenticity of the cell lines. Peripheral blood from healthy human donors was obtained from the Hematology Malignancy Tissue Bank at the University Health Network. Peripheral blood mononuclear cells (PBMC) were prepared from the blood by density gradient centrifugation using Ficoll-Paque PLUS by manufacturer's instructions (GE Healthcare Life Sciences). […] Compound (I) tartrate was prepared as a 10 mM stock solution in 100% DMSO. The stock solution was diluted with RPMI-1640 (Invitrogen) containing 10% FBS (fetal bovine serum) such that the final concentrations ranged from 300 fM to 300 μM. Aliquots (20 μL) from each concentration were overlaid to 180 μL of pre-seeded cells to achieve final concentrations of 30 fM to 30 μM. After 3 days, cell growth in each well was assessed by Alamar Blue assay reagent (Invitrogen). Raw fluorescence (λEM=590 nm) values were adjusted by subtracting the average of the baseline readings from untreated cells assessed one day after cell seeding. Relative cell growth was calculated by comparing to DMSO-treated cells. The concentrations at which cell growth was inhibited by 50% (growth inhibition IC50) were calculated using GraphPad PRISM software (GraphPad Software Inc.).

PBMC = test: Growth inhibition, Alamar Blue; type: cell-based; conditions: 72 h, NORMAL (healthy human donors), 3 days
Procedure: as §1

MOLM-13 = test: Growth inhibition, Alamar Blue; type: cell-based; conditions: Homo sapiens, 72 h; MOLM-13, AML M5; FLT3 ITD + wild-type, protein not expressed; 3 days
Procedure: as §1

OCI-AML4 = test: Growth inhibition, Alamar Blue; type: cell-based; conditions: Homo sapiens, 72 h; OCI-AML4, AML M4; 3 days
Procedure: as §1

OCI-LY8 = test: Growth inhibition, Alamar Blue; type: cell-based; conditions: Homo sapiens, 72 h; OCI-LY8, NHL, GCB-DLBCL; 3 days
Procedure: as §1

K562 = test: Growth inhibition, Alamar Blue; type: cell-based; conditions: Homo sapiens, 72 h; K562, CML; 3 days
Procedure: as §1

OCI-LY18 = test: Growth inhibition, Alamar Blue; type: cell-based; conditions: Homo sapiens, 72 h; OCI-LY18, NHL, GCB-DLBCL; 3 days
Procedure: as §1

OCI-AML3 = test: Growth inhibition, Alamar Blue; type: cell-based; conditions: Homo sapiens, OCI-AML-3, 72 h; OCI-AML3, AML M4; 3 days
Procedure: as §1

SU-DHL-8 = test: Growth inhibition, Alamar Blue; type: cell-based; conditions: Homo sapiens, 72 h; SU-DHL-8, NHL, GCB-DLBCL; 3 days
Procedure: as §1

U937 = test: Growth inhibition, Alamar Blue; type: cell-based; conditions: Homo sapiens, U-937, 72 h; U937, AML M5; 3 days
Procedure: as §1

NB4 = test: Growth inhibition, Alamar Blue; type: cell-based; conditions: Homo sapiens, NB-4, 72 h; NB4, AML M3; 3 days
Procedure: as §1

RS4; 11 = test: Growth inhibition, Alamar Blue; type: cell-based; conditions: Homo sapiens, 72 h, 11, B-ALL, 3 days
Procedure: as §1

OCI-LY10 = test: Growth inhibition, Alamar Blue; type: cell-based; conditions: Homo sapiens, 72 h; OCI-LY10, NHL, ABC-DLBCL; 3 days
Procedure: as §1

MOLM-14 = test: Growth inhibition, Alamar Blue; type: cell-based; conditions: Homo sapiens, 72 h; MOLM-14, AML M5; FLT3 ITD + wild-type, protein expressed; 3 days
Procedure: as §1

KOPN-8 = test: Growth inhibition, Alamar Blue; type: cell-based; conditions: Homo sapiens, 72 h; KOPN-8, B-ALL; 3 days
Procedure: as §1

HL-60 = test: Growth inhibition, Alamar Blue; type: cell-based; conditions: Homo sapiens, 72 h; HL-60, AML M2; FLT3 wild-type, protein expressed; 3 days
Procedure: as §1

OCI-AML5 = test: Growth inhibition, Alamar Blue; type: cell-based; conditions: Homo sapiens, OCI-AML-5, 72 h; OCI-AML5, AML M4; 3 days
Procedure: as §1

JURKAT = test: Growth inhibition, Alamar Blue; type: cell-based; conditions: Homo sapiens, 72 h, T-ALL, 3 days
Procedure: as §1

OCI-AML2 = test: Growth inhibition, Alamar Blue; type: cell-based; conditions: Homo sapiens, 72 h; OCI-AML2, AML M4; 3 days
Procedure: as §1

REH = test: Growth inhibition, Alamar Blue; type: cell-based; conditions: Homo sapiens, 72 h, B-ALL, 3 days
Procedure: as §1

NALM-16 = test: Growth inhibition, Alamar Blue; type: cell-based; conditions: Homo sapiens, NALM16, 72 h; NALM-16, B-ALL; 3 days
Procedure: as §1

NALM-6 = test: Growth inhibition, Alamar Blue; type: cell-based; conditions: Homo sapiens, 72 h; NALM-6, B-ALL; 3 days
Procedure: as §1

RAJI = test: Growth inhibition, Alamar Blue; type: cell-based; conditions: Homo sapiens, 72 h, NHL, Burkitt's lymphoma, 3 days
Procedure: as §1

DAUDI = test: Growth inhibition, Alamar Blue; type: cell-based; conditions: Homo sapiens, 72 h, NHL, Burkitt's lymphoma, 3 days
Procedure: as §1

[1] = tested on: mature 160 kDa form of FLT3-ITD; test: Immunoblot of FLT3 in MV-4-11 cells; type: cell-based, human; conditions: 4 hours, dose-dependent
Procedure: MV-4-11 cells (FLT3 LOH, FLT3-ITD positive cells) were treated with the indicated concentrations of Compound (I) tartrate for 4 hours at 37° C. and 5% CO2. Lysates were analyzed by immunoblot analysis with antibodies against FLT3 (Cell Signaling Technology, Inc., Cat. #3462), PARP (Cell Signaling Technology, Inc., Cat. #9542) and GAPDH (Millipore, Cat. #MAB374). Protein bands were visualized using a LI-COR Odyssey near infrared imager and representative data are shown. Compound (I) tartrate treatment increases the expression of the mature 160 kDa form of FLT3-ITD in MV-4-11 cells in a dose-dependent manner. Apoptotic cell death as measured by PARP cleavage was induced by Compound (I) tartrate treatment.

## CN1CCN(c2ccc3nc(-c4c(N)c5ccsc5[nH]c4=O)[nH]c3c2)CC1 [Compound (I) tartrate, 4-amino-5-(6-(4-methylpiperazin-1-yl)-1H-benzo[d]imidazol-2-yl)thieno[2,3-b]pyridin-6(7H)-one]
OCI-LY3
  IC50: 0.24 µM
PBMC
  IC50: 14 µM
MOLM-13
  IC50: 1.9 µM
OCI-AML4
  IC50: 0.16 µM
OCI-LY8
  IC50: 3.6 µM
K562
  IC50: 6 µM
OCI-LY18
  IC50: 0.09 µM
OCI-AML3
  IC50: ≥ 30 µM
SU-DHL-8
  IC50: 2.6 µM
U937
  IC50: 0.77 µM
NB4
  IC50: 0.94 µM
RS4; 11
  IC50: 1.7 µM
OCI-LY10
  IC50: 0.57 µM
MOLM-14
  IC50: 0.0047 µM
KOPN-8
  IC50: 3.3 µM
HL-60
  IC50: 1.2 µM
OCI-AML5
  IC50: 0.27 µM
JURKAT
  IC50: 3.4 µM
OCI-AML2
  IC50: 1.5 µM
REH
  IC50: 1.4 µM
NALM-16
  IC50: 1.1 µM
NALM-6
  IC50: 10 µM
RAJI
  IC50: 6.6 µM
DAUDI
  IC50: 1.3 µM
[1]
  expression of the mature 160 kDa form of FLT3-ITD: increases
